Where two headings read alike, the source gives them in different places.
Tests used:
[1] = Coadministration with pantoprazole (proton-pump inhibitor); type: in vivo, human; conditions: 40 mg QD pantoprazole with 150 mg QD ripretinib
Method: The effect of a proton-pump inhibitor on the exposure of ripretinib was evaluated.

[2] = Observed clinical PK after single and multiple doses; type: in vivo; conditions: human, plasma, oral; SD administration, healthy participants
Method: CYP3A4 inactivation parameters and induction parameters were subsequently incorporated in the model to assess the net effect on drug clearance at steady state. Due to the uncertainty in the in vitro CYP3A4 MBI data and CYP3A4 induction data, a series of sensitivity analysis was performed. […] Therefore, the in vitro CYP3A4 interaction data were used in the final model. The simulated profiles of ripretinib and DP-5439 in virtual participants were compared to the clinical data. […] The predicted mean AUC0-12 values for DP-5439 on Day 1 were within 2-fold (majority within 1.5-fold) of the observed values, except for the 250-mg QD dose. The mean AUC0-12 and Cmax values for DP-5439 on Day 15 were under-predicted. […] For example, the reported AUCs for ripretinib and DP-5439 at the 150-mg QD dose level were 1.66 and 5.29, respectively. […] The mechanisms for the accumulation of DP-5439 were unclear.

[3] = Unbound fraction / plasma protein binding; type: in vitro ADME, human; conditions: human, plasma, oral, 50 mg, read-out: unbound fraction fu %
Excerpt: (§1) Both ripretinib and DP-5439 display high binding to plasma proteins in vitro; therefore, clinical samples were collected to investigate the effect of HI on the unbound fraction (fu) % for both analytes. Distributions of individual mean fu % for both ripretinib and DP-5439 show high variability between participants. The ripretinib mean fu % was ≤0.6% in healthy participants and in participants with hepatic impairment. The DP-5439 fu % was ≤0.5% in healthy participants and 0.2% to 1.4% in participants with hepatic impairment. No clear trend could be established between unbound ripretinib and DP-5439 PK parameters and the degrees of HI.

plasma proteins = experiment: Unbound fraction / plasma protein binding; type: in vitro ADME, human
Excerpt: as §1

[4] = PBPK model of ripretinib and DP-5439 (Simcyp Simulator)
Excerpt: A PBPK model that included a mechanistic absorption model was developed.
Thus, potential auto-induction and auto-inhibition effects were captured within the model.
Single dose (SD) PK data from participants with mild, moderate, and severe HI were used to refine and/or verify the PBPK model. […] Subsequently, the corresponding plasma concentration-time profiles in HI participants were likewise simulated and compared to the observed data.
Predictions of plasma drug concentration-time profiles, clearance and DDIs were performed in the Simcyp Simulator using a population of virtual participants. The default healthy participant population was applied in all simulations involving healthy participants. […] With the exception of demographic data, all parameter values for the healthy participant population were the same as those used for the North European Caucasian population.
For simulations involving cancer participants, the North European Caucasian population was used to accommodate the wider age range observed in this population (19 to 87 years old; median 61 years). Weibull age distribution was applied with alpha and beta values of 5.47 and 66.5 years for male participants and 5.22 and 68.57 years for female participants. Age, height and weight distributions for the simulated virtual participant population were consistent with those from the first-in-human dose-escalation study in cancer patients.
For simulations involving participants with HI, 3 population models have been developed for the Simcyp Simulator and are based on the 3 Child-Pugh categories (CP-A, CP-B and CP-C). […] When reduced hepatic size was also taken into account, overall CYP3A4 expression in CP-A, CP-B and CP-C participants was reduced to 69%, 36% and 20%, respectively, to that of healthy participants.

[5] = Food effect (high-fat meal) on exposure; type: in vivo, human; conditions: 150 mg dose of ripretinib
Method: The effect of a high-fat breakfast on ripretinib and Compound A exposure was evaluated. A high fat meal consisted of approximately 150, 250, and 500-600 calories from protein, carbohydrate, and fat, respectively. […] The food effect is not considered to be clinically significant based on exposure-response analysis. Therefore, ripretinib may be taken with or without food at approximately same time each day.

In the case of CCn1c(=O)c(-c2cc(NC(=O)Nc3ccccc3)c(F)cc2Br)cc2cnc(N)cc21 [Compound A], the “plasma exposure when ripretinib is coadministered with pantoprazole” value [1] is reported as “No clinically significant differences”, the half-life [2] is reported as about 17 h and the fraction unbound ([3]; healthy participants) is reported as at most 0.005. The fraction unbound ([3]; participants with hepatic impairment) was 0.002 to 0.014, the “binding to plasma proteins” value (plasma proteins; in vitro) was “high binding” and the “impact of HI (albumin, ALP, ALT, AST, bilirubin changes) on unbound exposure” value (plasma proteins; visual assessment) was “did not appear to have an impact”. The “all predictions relative to observed” value ([4]; 150 mg QD dose) was at most 2 fold, the “predicted mean AUC0-12 relative to observed values” ([4]; Day 1, except 250-mg QD dose) was at most 2 fold and the “AUC0-24h higher with a high-fat meal” value [5] was 47%. For the same compound, the “Cmax higher with a high-fat meal” value [5] was 66%.

From patent US11779572B1, “Methods of treating gastrointestinal stromal tumors” (Deciphera Pharmaceuticals, LLC, priority 2022, dated 2023)
